The target of assay [1] is ROCK1 (Homo sapiens (Human), UniProt Q13464). The following applies: read-out: ROCK1 Average Ki; 1 μM ATP.
The target of assay [2] is MRCKβ (Homo sapiens (Human), UniProt Q9Y5S2). Put plainly: MRCKβ kinase assay (IMAP fluorescence polarization). The format is biochemical. Particulars: 1 μM ATP; read-out: MRCK-B Average Ki. The source says: MRCKα, MRCKβ, ROCK1 and ROCK2 Kinase Assays
In general terms: In fluorescence polarisation assays a small probe gives low polarisation when free and higher when bound to something large.

Chain of ROCK1 (Q13464 2-1354 limits assumed): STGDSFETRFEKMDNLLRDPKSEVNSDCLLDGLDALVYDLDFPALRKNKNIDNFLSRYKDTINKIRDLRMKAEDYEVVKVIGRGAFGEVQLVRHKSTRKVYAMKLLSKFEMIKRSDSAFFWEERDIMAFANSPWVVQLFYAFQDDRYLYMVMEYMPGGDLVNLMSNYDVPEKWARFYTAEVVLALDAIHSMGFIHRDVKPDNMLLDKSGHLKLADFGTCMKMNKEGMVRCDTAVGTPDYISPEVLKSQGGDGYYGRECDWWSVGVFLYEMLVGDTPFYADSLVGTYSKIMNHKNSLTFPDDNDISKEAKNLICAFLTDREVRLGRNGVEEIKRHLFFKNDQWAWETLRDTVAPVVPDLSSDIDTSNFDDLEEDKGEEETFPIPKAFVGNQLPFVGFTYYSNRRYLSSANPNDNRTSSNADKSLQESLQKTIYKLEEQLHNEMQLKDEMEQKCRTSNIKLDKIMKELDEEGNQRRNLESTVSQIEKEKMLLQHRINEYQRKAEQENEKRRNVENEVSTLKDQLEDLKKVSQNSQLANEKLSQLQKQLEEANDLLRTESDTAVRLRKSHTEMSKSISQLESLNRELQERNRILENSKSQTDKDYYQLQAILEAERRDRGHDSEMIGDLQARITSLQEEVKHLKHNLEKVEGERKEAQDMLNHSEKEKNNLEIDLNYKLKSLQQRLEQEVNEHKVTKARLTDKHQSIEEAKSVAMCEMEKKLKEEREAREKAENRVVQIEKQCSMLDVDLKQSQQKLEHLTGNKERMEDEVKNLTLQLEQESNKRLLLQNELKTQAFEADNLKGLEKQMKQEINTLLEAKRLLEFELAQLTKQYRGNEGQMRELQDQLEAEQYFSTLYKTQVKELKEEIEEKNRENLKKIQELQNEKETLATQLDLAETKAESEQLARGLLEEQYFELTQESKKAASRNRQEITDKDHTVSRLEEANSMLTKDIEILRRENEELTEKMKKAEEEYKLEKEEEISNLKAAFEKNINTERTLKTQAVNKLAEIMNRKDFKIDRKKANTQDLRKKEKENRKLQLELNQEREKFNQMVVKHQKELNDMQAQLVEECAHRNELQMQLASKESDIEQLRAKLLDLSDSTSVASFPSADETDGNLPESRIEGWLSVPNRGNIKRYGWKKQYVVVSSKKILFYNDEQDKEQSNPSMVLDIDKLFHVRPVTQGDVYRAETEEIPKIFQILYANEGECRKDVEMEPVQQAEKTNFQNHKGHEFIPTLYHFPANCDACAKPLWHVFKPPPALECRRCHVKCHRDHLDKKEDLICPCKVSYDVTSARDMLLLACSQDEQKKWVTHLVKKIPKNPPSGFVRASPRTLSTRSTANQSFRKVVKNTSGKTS

One may read the Ki as the equilibrium dissociation constant of an inhibitor or competing ligand from its target. `c1cc(-c2c[nH]c3nccc(N4CCC5(CCCN5)C4)c23)cnn1` (stereo not drawn) [Example E161, 4-(1,7-diazaspiro[4.4]nonan-7-yl)-3-pyridazin-4-yl-1H-pyrrolo[2,3-b]pyridine]: the Ki in assay [1] was 34.1 nM; in assay [2] it was 0.933 nM.
For `c1ncc(-c2c[nH]c3nccc(N4CC[C@]5(CCCCN5)C4)c23)cn1` [Example E125, (5R)-2-(3-pyrimidin-5-yl-1H-pyrrolo[2,3-b]pyridin-4-yl)-2,6-diazaspiro[4.5]decane], the Ki stood at 424 nM in assay [1] and 31.3 nM in assay [2].
Turning to `c1csc(-c2c[nH]c3nccc(N4CCCC5(CCCCN5)C4)c23)n1` (stereo not drawn) [Example E149, 2-[4-(1,8-diazaspiro[5.5]undecan-8-yl)-1H-pyrrolo[2,3-b]pyridin-3-yl]thiazole], the Ki in assay [1] amounted to 304 nM; in assay [2], 0.0633 nM.
With `c1csc(-c2c[nH]c3nccc(N4CC[C@]5(CCCN5)C4)c23)n1` [Example E135, 2-[4-[(5R)-1,7-diazaspiro[4.4]nonan-7-yl]-1H-pyrrolo[2,3-b]pyridin-3-yl]thiazole], the Ki in assay [1] came to 100000 nM; in assay [2], 10.3 nM.
As for `N#Cc1c[nH]c2nccc(N3CCC[C@H]3C(=O)N3CCOCC3)c12` [Example E202, 4-[(2S)-2-(morpholine-4-carbonyl)pyrrolidin-1-yl]-1H-pyrrolo[2,3-b]pyridine-3-carbonitrile], the Ki in assay [2] is 992 nM.
`c1csc(-c2c[nH]c3nccc(N4CCC[C@]5(CCCCN5)C4)c23)n1` [Example E151, 2-[4-[(6R)-1,8-diazaspiro[5.5]undecan-8-yl]-1H-pyrrolo[2,3-b]pyridin-3-yl]thiazole]: the Ki amounted to 114 nM in assay [1] and 3.21 nM in assay [2].
As to `c1ncc(-c2c[nH]c3nccc(N4CCCNCC4)c23)cn1` [Example E44, 4-(1,4-diazepan-1-yl)-3-pyrimidin-5-yl-1H-pyrrolo[2,3-b]pyridine], the Ki in assay [1] turned out to be 461 nM; in assay [2], 4.5 nM.
Consider `Cc1cnc(-c2c[nH]c3nccc(N4CCC5(CCN5)C4)c23)s1` (stereo not drawn) [Example E152, 2-[4-(1,7-diazaspiro[3.4]octan-7-yl)-1H-pyrrolo[2,3-b]pyridin-3-yl]-5-methyl-thiazole], for which the Ki was 100000 nM in assay [1] and 4.65 nM in assay [2].
The matching figures for `c1cc(-c2c[nH]c3nccc(N4CCC5(CCCCN5)C4)c23)cnn1` (stereo not drawn) [Example E162, 2-(3-pyridazin-4-yl-1H-pyrrolo[2,3-b]pyridin-4-yl)-2,6-diazaspiro[4.5]decane]: 16.9 nM and 0.219 nM.
Consider `N#Cc1c[nH]c2nccc(N3CCCC4(CCCCN4)C3)c12` (stereo not drawn) [Example E165, 4-(1,8-diazaspiro[5.5]undecan-8-yl)-1H-pyrrolo[2,3-b]pyridine-3-carbonitrile], for which the Ki in assay [1] amounted to 174 nM; in assay [2], 0.249 nM.
Consider `c1cc(-c2c[nH]c3nccc(N4CCCNCC4)c23)cnn1` [Example E43, 4-(1,4-diazepan-1-yl)-3-pyridazin-4-yl-1H-pyrrolo[2,3-b]pyridine], for which the values for the Ki in assay [1] and in assay [2] were 59.5 nM and 2.61 nM, respectively.
On to `c1cc(-c2c[nH]c3nccc(N4CCC[C@]5(CCCCN5)C4)c23)cnn1` [Example E173, (6R)-8-(3-pyridazin-4-yl-1H-pyrrolo[2,3-b]pyridin-4-yl)-1,8-diazaspiro[5.5]undecane], for which the values for the Ki in assay [1] and in assay [2] were 294 nM and 1.18 nM, respectively.
Take “N-[(3S)-1-(3-pyridazin-4-yl-1H-pyrrolo[2,3-b]pyridin-4-yl)-3-piperidyl]acetamide [Example E205]”: the figures for the Ki in assay [1] and in assay [2] were 113 nM and 4.43 nM, respectively.
As for `Cc1csc(-c2c[nH]c3nccc(N4CCCC5(CCCCN5)C4)c23)n1` (stereo not drawn) [Example E158, 2-[4-(1,8-diazaspiro[5.5]undecan-8-yl)-1H-pyrrolo[2,3-b]pyridin-3-yl]-4-methyl-thiazole], the Ki amounted to 100000 nM in assay [1] and 0.36 nM in assay [2].
The matching figures for `c1cc(-c2c[nH]c3nccc(N4CC[C@]5(CCCCN5)C4)c23)ncn1` [Example E127, (5R)-2-(3-pyrimidin-4-yl-1H-pyrrolo[2,3-b]pyridin-4-yl)-2,6-diazaspiro[4.5]decane]: 175 nM and 11.6 nM.
On to `Cc1ncc(-c2c[nH]c3nccc(N4CCCC5(CCCCN5)C4)c23)cn1` (stereo not drawn) [Example E166, 8-[3-(2-methylpyrimidin-5-yl)-1H-pyrrolo[2,3-b]pyridin-4-yl]-1,8-diazaspiro[5.5]undecane], for which the figures for the inhibition constant (Ki) in assay [1] and in assay [2] were 100000 nM and 0.786 nM, respectively.
The matching figures for `c1ccc(-c2c[nH]c3nccc(N4CCCC5(CCCCN5)C4)c23)nc1` (stereo not drawn) [Example E138, 8-[3-(2-pyridyl)-1H-pyrrolo[2,3-b]pyridin-4-yl]-1,8-diazaspiro[5.5]undecane]: 319 nM and 0.0726 nM.
Turning to `Cc1cnc(-c2c[nH]c3nccc(N4CCC5(CCCCN5)C4)c23)s1` (stereo not drawn) [Example E144, 2-[4-(2,6-diazaspiro[4.5]decan-2-yl)-1H-pyrrolo[2,3-b]pyridin-3-yl]-5-methyl-thiazole], the Ki is 386 nM in assay [1] and 0.154 nM in assay [2].
The matching figures for `c1ncc(-c2c[nH]c3nccc(N4CC[C@]5(CCCN5)C4)c23)cn1` [Example E123, 4-[(5R)-1,7-diazaspiro[4.4]nonan-7-yl]-3-pyrimidin-5-yl-1H-pyrrolo[2,3-b]pyridine]: 100000 nM and 9.88 nM.
The matching figures for “7-(3-pyridazin-4-yl-1H-pyrrolo[2,3-b]pyridin-4-yl)-2,7-diazaspiro[4.5]decane [Example E163]”: 16.7 nM and 2.4 nM.
For the compound `Cc1cnc(-c2c[nH]c3nccc(N4CC[C@]5(CCCCN5)C4)c23)s1` [Example E130, 2-[4-[(5R)-2,6-diazaspiro[4.5]decan-2-yl]-1H-pyrrolo[2,3-b]pyridin-3-yl]-5-methyl-thiazole], the results for the Ki in assay [1] and in assay [2] were 100000 nM and 7.23 nM, respectively.
The matching figures for `Cc1nccc(-c2c[nH]c3nccc(N4CCCC5(CCCCN5)C4)c23)n1` (stereo not drawn) [Example E160, 8-[3-(2-methylpyrimidin-4-yl)-1H-pyrrolo[2,3-b]pyridin-4-yl]-1,8-diazaspiro[5.5]undecane]: 100000 nM and 2.76 nM.
In the case of `Cc1cnc(-c2c[nH]c3nccc(N4CCC[C@]5(CCCCN5)C4)c23)s1` [Example E148, 2-[4-[(6R)-1,8-diazaspiro[5.5]undecan-8-yl]-1H-pyrrolo[2,3-b]pyridin-3-yl]-5-methyl-thiazole], the Ki in assay [1] stood at 100000 nM; in assay [2], 4.02 nM.
For the compound `N#Cc1c[nH]c2nccc(N3CCC[C@H]3C(=O)N3CCCCC3)c12` [Example E203, 4-[(2S)-2-(piperidine-1-carbonyl)pyrrolidin-1-yl]-1H-pyrrolo[2,3-b]pyridine-3-carbonitrile], in assay [2], the Ki worked out at 804 nM.
`CN(C)C(=O)C1(N)CCN(c2ccnc3[nH]cc(-c4cncnc4)c23)CC1` [Example E198, 4-amino-N,N-dimethyl-1-(3-pyrimidin-5-yl-1H-pyrrolo[2,3-b]pyridin-4-yl)piperidine-4-carboxamide]: in assay [2], the Ki worked out at 42.9 nM.
On to `N#Cc1c[nH]c2nccc(N3CCCCC3Cc3ccccc3)c12` (stereo not drawn) [Example E106, 4-(2-benzyl-1-piperidyl)-1H-pyrrolo[2,3-b]pyridine-3-carbonitrile], for which the Ki in assay [2] was 805 nM.

Values taken from patent US11447505B1, “Pyrrolo[2,3-b]pyridine compounds and their use in the treatment of cancer” (priority 2017, dated 2022).
